Format in all cases: binding
Test [1] concerns the target T1, PDZ protein (GST-PDZ fusion) (Homo sapiens, UniProt Q15700).
T1 construct: made in house; host or cells: E. coli (DH5alpha, BL21 or JM109)
In words: G' assay (10 uM PL peptide), results of TABLE 7 and TABLE 12. In outline: (§1)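 Biotin-PL peptide (N-term label), 10 uM vs GST-PDZ; protein 5 ug/ml by default. A450 nm binned: 1 = 0-1, 2 = 1-2, 3 = 2-3, 4 = 3-4, 5 = >4 on >2 repeats, 0 = no binding.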

The target of test [2] is T2, PDZ protein (GST-PDZ fusion) (Homo sapiens, UniProt O15018).
T2 construct: made in house; host or cells: E. coli (DH5alpha, BL21 or JM109)
T2 sequence (O15018 whole entry, the tested form may be a part): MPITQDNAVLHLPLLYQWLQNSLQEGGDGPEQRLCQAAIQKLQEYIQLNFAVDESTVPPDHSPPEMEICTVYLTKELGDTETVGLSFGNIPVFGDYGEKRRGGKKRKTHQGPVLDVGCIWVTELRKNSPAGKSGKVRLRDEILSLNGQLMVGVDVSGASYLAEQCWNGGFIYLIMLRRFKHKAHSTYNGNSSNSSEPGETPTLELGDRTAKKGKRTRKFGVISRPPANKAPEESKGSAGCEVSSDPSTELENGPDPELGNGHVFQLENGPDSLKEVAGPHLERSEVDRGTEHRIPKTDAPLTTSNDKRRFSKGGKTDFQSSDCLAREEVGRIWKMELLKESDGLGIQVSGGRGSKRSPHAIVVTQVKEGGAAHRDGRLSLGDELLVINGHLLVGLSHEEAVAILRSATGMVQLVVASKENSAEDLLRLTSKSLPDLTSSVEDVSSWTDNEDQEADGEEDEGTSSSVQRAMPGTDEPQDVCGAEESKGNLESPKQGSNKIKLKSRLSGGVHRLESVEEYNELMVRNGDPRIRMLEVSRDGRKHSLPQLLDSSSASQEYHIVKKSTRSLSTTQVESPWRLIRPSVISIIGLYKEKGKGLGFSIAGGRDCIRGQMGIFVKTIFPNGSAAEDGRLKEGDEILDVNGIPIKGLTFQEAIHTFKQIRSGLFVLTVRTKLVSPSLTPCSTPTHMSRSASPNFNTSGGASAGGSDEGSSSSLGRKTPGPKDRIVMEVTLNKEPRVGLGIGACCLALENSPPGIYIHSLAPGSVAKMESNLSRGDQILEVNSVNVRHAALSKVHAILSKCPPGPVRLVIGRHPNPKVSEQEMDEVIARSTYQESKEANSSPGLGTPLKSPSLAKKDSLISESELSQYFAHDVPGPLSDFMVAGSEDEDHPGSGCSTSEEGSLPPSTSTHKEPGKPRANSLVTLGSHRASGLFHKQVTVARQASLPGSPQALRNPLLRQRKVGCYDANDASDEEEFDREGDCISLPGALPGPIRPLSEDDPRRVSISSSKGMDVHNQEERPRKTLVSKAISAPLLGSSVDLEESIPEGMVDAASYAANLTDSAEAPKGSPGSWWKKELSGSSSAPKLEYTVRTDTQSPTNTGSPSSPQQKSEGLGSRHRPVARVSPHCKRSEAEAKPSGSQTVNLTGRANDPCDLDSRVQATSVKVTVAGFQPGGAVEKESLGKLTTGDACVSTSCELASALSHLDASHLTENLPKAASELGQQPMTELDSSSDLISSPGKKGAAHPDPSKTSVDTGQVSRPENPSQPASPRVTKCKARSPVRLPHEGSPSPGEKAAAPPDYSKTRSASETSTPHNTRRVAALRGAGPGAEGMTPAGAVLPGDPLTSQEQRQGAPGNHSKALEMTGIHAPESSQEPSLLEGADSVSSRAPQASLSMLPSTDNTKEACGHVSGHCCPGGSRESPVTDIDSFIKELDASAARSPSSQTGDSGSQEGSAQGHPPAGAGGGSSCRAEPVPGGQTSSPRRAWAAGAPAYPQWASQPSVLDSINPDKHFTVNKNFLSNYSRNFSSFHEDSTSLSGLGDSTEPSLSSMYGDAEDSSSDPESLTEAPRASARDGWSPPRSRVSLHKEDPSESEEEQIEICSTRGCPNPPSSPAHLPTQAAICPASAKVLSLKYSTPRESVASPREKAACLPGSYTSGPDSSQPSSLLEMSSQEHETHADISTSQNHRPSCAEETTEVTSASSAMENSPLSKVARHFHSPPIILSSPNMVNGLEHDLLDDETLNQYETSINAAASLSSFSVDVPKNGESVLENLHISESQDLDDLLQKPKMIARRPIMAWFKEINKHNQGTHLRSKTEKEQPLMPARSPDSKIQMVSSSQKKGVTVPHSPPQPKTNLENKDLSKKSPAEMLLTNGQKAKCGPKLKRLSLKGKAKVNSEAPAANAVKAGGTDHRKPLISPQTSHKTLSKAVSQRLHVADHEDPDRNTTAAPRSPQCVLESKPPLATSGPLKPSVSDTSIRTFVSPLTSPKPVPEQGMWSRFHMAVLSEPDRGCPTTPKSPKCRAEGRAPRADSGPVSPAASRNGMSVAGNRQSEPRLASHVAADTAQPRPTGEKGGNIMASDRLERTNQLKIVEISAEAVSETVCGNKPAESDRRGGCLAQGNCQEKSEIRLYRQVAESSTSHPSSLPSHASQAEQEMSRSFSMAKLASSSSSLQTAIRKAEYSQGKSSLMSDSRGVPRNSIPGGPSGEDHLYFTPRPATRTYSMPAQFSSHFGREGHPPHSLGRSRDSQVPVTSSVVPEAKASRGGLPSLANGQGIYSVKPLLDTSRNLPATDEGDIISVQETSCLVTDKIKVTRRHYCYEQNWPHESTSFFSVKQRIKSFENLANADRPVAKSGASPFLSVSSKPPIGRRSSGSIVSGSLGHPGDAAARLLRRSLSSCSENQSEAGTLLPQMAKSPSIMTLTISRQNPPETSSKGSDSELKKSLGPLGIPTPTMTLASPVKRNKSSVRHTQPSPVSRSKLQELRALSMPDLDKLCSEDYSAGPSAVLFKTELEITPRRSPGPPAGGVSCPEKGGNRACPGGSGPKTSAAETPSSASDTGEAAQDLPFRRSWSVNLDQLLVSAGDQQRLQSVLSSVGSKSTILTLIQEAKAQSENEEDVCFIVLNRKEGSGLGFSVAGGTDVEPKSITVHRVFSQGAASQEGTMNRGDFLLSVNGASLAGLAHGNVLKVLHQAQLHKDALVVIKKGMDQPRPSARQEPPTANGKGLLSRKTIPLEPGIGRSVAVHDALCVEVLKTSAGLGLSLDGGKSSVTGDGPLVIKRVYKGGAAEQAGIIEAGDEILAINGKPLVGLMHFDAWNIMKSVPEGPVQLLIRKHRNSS
The description is as above. In outline: as §1

Test [3] addresses T3, PDZ protein (GST-PDZ fusion) (Homo sapiens, UniProt Q02410).
T3 construct: made in house; host or cells: E. coli (DH5alpha, BL21 or JM109)
T3 sequence (Q02410 1-837): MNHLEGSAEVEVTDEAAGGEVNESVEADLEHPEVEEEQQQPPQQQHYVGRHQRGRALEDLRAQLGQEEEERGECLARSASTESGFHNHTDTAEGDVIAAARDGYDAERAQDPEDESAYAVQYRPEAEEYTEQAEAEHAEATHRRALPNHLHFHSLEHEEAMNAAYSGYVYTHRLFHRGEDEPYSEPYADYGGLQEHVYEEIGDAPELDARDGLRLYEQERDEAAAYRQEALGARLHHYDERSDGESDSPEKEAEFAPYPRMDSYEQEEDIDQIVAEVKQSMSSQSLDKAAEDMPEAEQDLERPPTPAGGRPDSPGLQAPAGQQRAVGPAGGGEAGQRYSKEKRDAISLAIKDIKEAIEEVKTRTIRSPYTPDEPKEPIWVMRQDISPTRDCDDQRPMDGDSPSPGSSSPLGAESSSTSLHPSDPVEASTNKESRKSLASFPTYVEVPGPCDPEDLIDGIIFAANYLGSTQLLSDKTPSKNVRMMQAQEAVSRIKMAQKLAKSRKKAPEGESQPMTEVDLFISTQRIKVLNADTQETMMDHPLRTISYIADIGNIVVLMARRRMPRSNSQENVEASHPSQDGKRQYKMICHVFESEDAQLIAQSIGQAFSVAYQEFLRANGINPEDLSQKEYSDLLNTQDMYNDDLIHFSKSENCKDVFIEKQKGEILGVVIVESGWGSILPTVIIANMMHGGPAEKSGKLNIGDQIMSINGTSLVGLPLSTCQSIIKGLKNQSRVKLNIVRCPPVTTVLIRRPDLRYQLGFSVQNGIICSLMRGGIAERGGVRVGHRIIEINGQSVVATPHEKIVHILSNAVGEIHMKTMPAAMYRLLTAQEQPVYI
The test is described as above. The procedure, abridged:
as §1

In test [4] the target is PDZ-domain polypeptide (GST/PDZ fusion protein). The test is described as follows: Apparent affinity (Kd) by titration of PL peptide in the G assay. In outline:
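A fixed concentration of GST/PDZ fusion protein, 5 ug/ml by default, was mixed in solution with increasing labeled PL peptide (e.g. 0.1 uM-1 mM). Reaction times ranged from 10 minutes to 2 days at 4-37° C. Complexes were separated from free peptide and detected via the label as in the G assay, apparent affinity coming from the saturating concentration.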

Each structure is given as a SMILES string. Where two headings read alike, the source gives them in different places. Peptide text beside a SMILES is read from it. * marks the point of attachment. Biotin = O=C1N[C@H]2[C@H](CS[C@H]2CCCCC(=O)*)N1

T1 sequence (Q15700 whole entry, the tested form may be a part): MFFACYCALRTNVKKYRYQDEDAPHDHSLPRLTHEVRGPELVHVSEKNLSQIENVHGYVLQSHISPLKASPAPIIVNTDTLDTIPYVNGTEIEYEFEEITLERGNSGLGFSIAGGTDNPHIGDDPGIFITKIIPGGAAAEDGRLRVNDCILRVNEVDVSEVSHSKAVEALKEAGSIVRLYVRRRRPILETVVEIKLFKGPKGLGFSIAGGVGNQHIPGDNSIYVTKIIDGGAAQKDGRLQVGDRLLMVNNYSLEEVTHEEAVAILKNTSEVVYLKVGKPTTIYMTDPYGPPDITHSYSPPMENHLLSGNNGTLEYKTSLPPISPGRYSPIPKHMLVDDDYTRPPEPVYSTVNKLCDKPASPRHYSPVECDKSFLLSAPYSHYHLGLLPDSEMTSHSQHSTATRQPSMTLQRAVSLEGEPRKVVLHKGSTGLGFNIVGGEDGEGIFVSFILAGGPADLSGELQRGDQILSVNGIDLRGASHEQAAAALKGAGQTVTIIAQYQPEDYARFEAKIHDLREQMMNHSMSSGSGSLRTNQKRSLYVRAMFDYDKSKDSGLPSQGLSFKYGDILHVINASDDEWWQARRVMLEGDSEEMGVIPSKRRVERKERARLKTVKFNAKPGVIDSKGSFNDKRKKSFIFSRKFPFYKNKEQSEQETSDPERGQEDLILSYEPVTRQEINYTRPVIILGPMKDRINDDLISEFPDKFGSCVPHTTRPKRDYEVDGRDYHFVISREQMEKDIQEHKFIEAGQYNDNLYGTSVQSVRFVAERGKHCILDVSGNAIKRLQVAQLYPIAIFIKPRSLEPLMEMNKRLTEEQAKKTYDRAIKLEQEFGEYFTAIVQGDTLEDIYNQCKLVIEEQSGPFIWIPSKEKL

With `CC(C)C[C@H](NC(=O)[C@H](C)NC(=O)[C@H](CO)NC(=O)CNC(=O)[C@@H](NC(=O)CCCC[C@@H]1SC[C@@H]2NC(=O)N[C@@H]21)[C@@H](C)O)C(=O)N[C@@H](CCC(N)=O)C(=O)N[C@@H](C)C(=O)N[C@@H](Cc1c[nH]c2ccccc12)C(=O)N[C@@H](CCCNC(=N)N)C(=O)N[C@@H](Cc1c[nH]cn1)C(=O)N[C@H](C(=O)N[C@@H](CO)C(=O)N[C@@H](CCCNC(=N)N)C(=O)N[C@@H](CCC(N)=O)C(=O)N[C@@H](C)C(=O)N[C@H](C(=O)N[C@@H](CCC(=O)O)C(=O)N[C@@H](CO)C(=O)N[C@H](C(=O)N[C@H](C(=O)O)C(C)C)[C@@H](C)O)[C@@H](C)O)[C@@H](C)O` [HPV E6 #66 (modified)] (Biotin-TGSALQAWRHTSRQATESTV-OH; C-terminus assumed), the Classification in test [1] (PDZ DLG2, PDZ Domain 1) is listed as 1 (A450 nm 0-1); in test [1] (PDZ DLG2, PDZ Domain 2), 5 (A450 nm of 4 more than 2× repeated); in test [2] (PDZ AIPC, PDZ Domain 1) it was 1 (A450 nm 0-1); in test [3] (PDZ Mint 1, PDZ Domain 1, 2) it was 1 (A450 nm 0-1); in test [3] (PDZ Mint 1, PDZ Domain 2) it was 1 (A450 nm 0-1). In addition, in test [4] (PDZ BAI-1, PDZ Domain 2, read-out: Peptide Optimal Conc (Kd by titration of the PL peptide)), the Kd came out at 3000 nM.

Consider `CC(C)C[C@H](NC(=O)[C@H](CC(=O)O)NC(=O)[C@H](CO)NC(=O)[C@H](CCC(=O)O)NC(=O)CNC(=O)[C@H](Cc1ccc(O)cc1)NC(=O)[C@H](CC(C)C)NC(=O)[C@H](C)NC(=O)[C@H](CO)NC(=O)[C@H](CO)NC(=O)[C@H](Cc1ccccc1)NC(=O)[C@H](C)NC(=O)[C@H](C)NC(=O)[C@H](Cc1ccc(O)cc1)NC(=O)[C@H](CC(=O)O)NC(=O)[C@H](CC(C)C)NC(=O)[C@H](C)NC(=O)CNC(=O)[C@@H]1CCCN1C(=O)[C@@H](NC(=O)CCCC[C@@H]1SC[C@@H]2NC(=O)N[C@@H]21)C(C)C)C(=O)O` [a-actinin 2] (Biotin-VPGALDYAAFSSALYGESDL-OH; C-terminus assumed), for which the Classification is 2 (A450 nm 1-2) in test [2] (PDZ AIPC, PDZ Domain 1); 1 (A450 nm 0-1) in test [3] (PDZ Mint 1, PDZ Domain 1, 2); 1 (A450 nm 0-1) in test [3] (PDZ Mint 1, PDZ Domain 2). Moreover, the Kd in test [4] (PDZ TAX IP2, PDZ Domain 1, titration of the PL peptide, read-out: Peptide Optimal Conc (Kd, dissociation constant)) worked out at 2500 nM.

As for `CC[C@H](C)[C@H](NC(=O)[C@H](CCC(N)=O)NC(=O)[C@@H](NC(=O)[C@H](Cc1c[nH]cn1)NC(=O)[C@H](CCC(N)=O)NC(=O)[C@H](CC(=O)O)NC(=O)[C@H](CCC(=O)O)NC(=O)[C@H](CC(=O)O)NC(=O)[C@H](Cc1ccccc1)NC(=O)[C@@H]1CCCN1C(=O)[C@H](CCC(=O)O)NC(=O)[C@H](CC(N)=O)NC(=O)[C@H](CCC(=O)O)NC(=O)[C@@H]1CCCN1C(=O)[C@H](CC(=O)O)NC(=O)[C@H](CO)NC(=O)[C@H](CC(=O)O)NC(=O)CCCC[C@@H]1SC[C@@H]2NC(=O)N[C@@H]21)[C@@H](C)O)C(=O)N[C@H](C(=O)N[C@@H](CCCCN)C(=O)N[C@H](C(=O)O)C(C)C)[C@@H](C)O` [PTEN], the Classification in test [2] (PDZ AIPC, PDZ Domain 1) is given as 1 (A450 nm 0-1); in test [3] (PDZ Mint 1, PDZ Domain 1, 2), 1 (A450 nm 0-1); in test [3] (PDZ Mint 1, PDZ Domain 2) it was 1 (A450 nm 0-1). Further, the Kd in test [4] (PDZ SHANK, PDZ Domain 1, read-out: Peptide Optimal Conc (Kd by titration of the PL peptide)) turned out to be 1500 nM.

Take `CC[C@H](C)[C@H](NC(=O)[C@H](CCCCN)NC(=O)[C@@H](NC(=O)[C@H](CO)NC(=O)[C@@H]1CCCN1C(=O)[C@H](Cc1ccccc1)NC(=O)[C@@H](NC(=O)[C@@H](NC(=O)[C@H](CCCNC(=N)N)NC(=O)[C@H](CCC(=O)O)NC(=O)[C@H](CC(C)C)NC(=O)[C@H](CC(C)C)NC(=O)[C@H](CC(C)C)NC(=O)[C@@H](NC(=O)CNC(=O)[C@@H](NC(=O)CCCC[C@@H]1SC[C@@H]2NC(=O)N[C@@H]21)C(C)C)[C@@H](C)O)C(C)C)[C@@H](C)CC)C(C)C)C(=O)N[C@@H](C)C(=O)N[C@H](C(=O)N[C@@H](CC(C)C)C(=O)N[C@H](C(=O)O)C(C)C)[C@@H](C)O` [Adenovirus E4 Type9]: the Classification in test [1] (PDZ DLG2, PDZ Domain 2, Protein Optimal Conc 0.5) is recorded as 5 (A450 nm of 4 more than 2× repeated); in test [2] (PDZ KIAA0300, PDZ Domain 1, PL peptide 10 uM), 1 (A450 nm 0-1); in test [3] (PDZ Mint 1, PDZ Domain 1, 2, PL peptide 10 uM), 2 (A450 nm 1-2); in test [3] (PDZ Mint 1, PDZ Domain 2, PL peptide 10 uM), 2 (A450 nm 1-2). For the same compound, the Kd in test [4] (PDZ BAI-1, PDZ Domain 2, Protein Optimal Conc 0.3, read-out: Peptide Optimal Conc (Kd by titration of the PL peptide)) stood at 20 nM; in test [4] (PDZ BAI-1, PDZ Domain 3, Protein Optimal Conc 0.5, read-out: Peptide Optimal Conc (Kd by titration of the PL peptide)), 75 nM; in test [4] (PDZ BAI-1, PDZ Domain 4, Protein Optimal Conc 0.3, read-out: Peptide Optimal Conc (Kd by titration of the PL peptide)) it was 100 nM; in test [4] (PDZ HEMBA 1003117, PDZ Domain 1, Protein Optimal Conc 5, read-out: Peptide Optimal Conc (Kd by titration of the PL peptide)), 300 nM.

On to `CC[C@H](C)[C@H](NC(=O)[C@H](CO)NC(=O)[C@@H](NC(=O)[C@H](Cc1ccccc1)NC(=O)[C@H](CO)NC(=O)CCCC[C@@H]1SC[C@@H]2NC(=O)N[C@@H]21)[C@@H](C)O)C(=O)N[C@@H](CC(C)C)C(=O)N[C@H](C(=O)N[C@@H](CS)C(=O)N[C@@H](Cc1c[nH]cn1)C(=O)N[C@@H](CCC(N)=O)C(=O)N[C@@H](CCCNC(=N)N)C(=O)N[C@@H](CCCNC(=N)N)C(=O)N[C@H](C(=O)N[C@@H](CCC(N)=O)C(=O)N[C@@H](CCCNC(=N)N)C(=O)N[C@@H](CCCCN)C(=O)N[C@@H](CCC(=O)O)C(=O)N[C@H](C(=O)N[C@H](C(=O)N[C@@H](C)C(=O)O)C(C)C)[C@@H](C)O)[C@@H](C)O)[C@@H](C)O` [GluR5-2 (rat)], for which the Classification in test [1] (PDZ DLG2, PDZ Domain 1) is reported as 1 (A450 nm 0-1); in test [1] (PDZ DLG2, PDZ Domain 2), 1 (A450 nm 0-1). In addition, in test [4] (PDZ BAI-1, PDZ Domain 2, titration of the PL peptide, read-out: Peptide Optimal Conc (Kd, dissociation constant)), the Kd came out at 300 nM.

For `CC[C@H](C)[C@H](NC(=O)[C@H](Cc1ccc(O)cc1)NC(=O)[C@H](CC(C)C)NC(=O)[C@H](CCC(N)=O)NC(=O)[C@H](Cc1c[nH]cn1)NC(=O)[C@H](CO)NC(=O)[C@H](C)NC(=O)[C@H](CC(C)C)NC(=O)[C@@H](NC(=O)[C@H](CC(=O)O)NC(=O)[C@H](CCSC)NC(=O)[C@H](Cc1ccccc1)NC(=O)[C@@H]1CCCN1C(=O)[C@H](CCCNC(=N)N)NC(=O)[C@@H](NC(=O)[C@H](CC(C)C)NC(=O)[C@H](CC(N)=O)NC(=O)[C@H](CC(=O)O)NC(=O)[C@@H](NC(=O)[C@H](CO)NC(=O)CCCC[C@@H]1SC[C@@H]2NC(=O)N[C@@H]21)[C@@H](C)O)C(C)C)[C@@H](C)O)C(=O)O` [presenilin-2] (Biotin-STDNLVRPFMDTLASHQLYI-OH; C-terminus assumed), the Classification in test [2] (PDZ AIPC, PDZ Domain 1) is recorded as 1 (A450 nm 0-1); in test [2] (PDZ AIPC, PDZ Domain 4) it was 1 (A450 nm 0-1); in test [2] (PDZ KIAA0300, PDZ Domain 1), 1 (A450 nm 0-1); in test [2] (PDZ KIAA0300, PDZ Domain 2), 1 (A450 nm 0-1); in test [3] (PDZ Mint 1, PDZ Domain 1, 2), 3 (A450 nm 2-3). Moreover, the Kd in test [4] (PDZ HEMBA 1003117, PDZ Domain 1, titration of the PL peptide, read-out: Peptide Optimal Conc (Kd, dissociation constant)) amounted to 4000 nM.
